Changes are numbered by the printed parent chain. Where a SMILES comes first, the peptide text is derived from it. [ ]: non-standard residue; d: D form. The star is where a group is joined. Benzoyl(4-OPh) = O=C(c1ccc(Oc2ccccc2)cc1)*; Lys(Et2) = CCN(CC)CCCC[C@H](N)C(=O)O; Gly(cPent) = N[C@H](C(=O)O)C1CCCC1
Tests used:
mutant CBX8 (Y39F) = biological target: T1, mutant CBX8 (Y39F) (Homo sapiens, UniProt Q9HC52, Y39F); test: Time-dependent fluorescence polarization displacement assay, CBX8 Y39F; assay type: binding
T1 construct: Time dependent fluorescence polarization displacement assays of indicated chromodomains with P2
T1 sequence (Q9HC52 11-69 Y39F limits assumed): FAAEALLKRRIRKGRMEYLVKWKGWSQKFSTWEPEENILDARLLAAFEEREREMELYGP
Description: (§1) (A) The fraction of labeled protein as determined by UV integration on reverse phase HPLC. CBX8 ChD and P2 were incubated at 10 μM each for 16 hours at 37° C. UV absorption measured at 215 nm. (B) Mass spectra of CBX8 ChD treated overnight with inhibitor P2 (top, red) and control CBX8 ChD (bottom, green). Observed masses are shown (expected average mass for CBX8 ChD=8792 Da). The observed mass difference (895 Da) corresponds to the expected mass change of 901 Da. (C) Time dependent fluorescence polarization displacement assays of indicated chromodomains with P2. Assays were conducted using SW2_123 as an FP probe (FIG. S15) at 100 nM. All proteins were used at 2 μM in PBS (pH 7), 0.02% Tween 20. Error bars represent s.d.
To validate labeling of the targeted tyrosine residue (Y39), this amino acid was mutated to phenylalanine, which is structurally similar but lacks reactivity to the cyclic imine. […] Similarly, for CBX2 ChD, no change in apparent affinity was observed over time in the FP assay (FIG. 13C), and no labeled protein was detected by MS.

[1] = system: HOXA9 gene expression in THP1 cells; test: qRT-PCR analysis of HOXA9 gene expression in THP1 cells; assay type: cell-based
Description: FIG. 14 Cellular activity of covalent, cyclic imine inhibitors to CBX8. qRT-PCR analysis of HOXA9 gene expression in THP1 cells after 48 h of compound treatment at the indicated dose. N=3. Error bars represent s.d. Statistical significance determined by Student's T test. *=p<0.05, **=p<0.01, ***=p<0.001, ****=p<0.0001.
FIG. 15 Cellular activity of covalent, cyclic imine inhibitors to CBX8. (A) qRT-PCR analysis of HOXA9 gene expression in THP1 cells after 48 h of compound treatment at the indicated dose. N=3. Error bars represent s.d. Statistical significance calculated using student's t-test. **=p<0.01, ****=p<0.0001. (B) qRT-PCR analysis of HOXA9 gene expression in THP1 cells treated with increasing doses of compound for 48 h. N=3. Error bars represent s.d.
Imine inhibitors were assessed for improved cellular activity using a disease-relevant cell model. […] Using this same model, we compared the covalent inhibitors with non-covalent inhibitor SW2_110A in THP1 cell lines. […] The two optimal inhibitors P1bP and P2 were subsequently tested for dose-dependency in this cellular assay. Dose curves indicate that these covalent inhibitors have 30 to 100-fold improvement of cellular activity compared to the non-covalent inhibitor (FIG. 15B).

[2] = biological target: T2, wild-type CBX8 chromodomain (Homo sapiens, UniProt Q9HC52); test: Time-dependent fluorescence polarization displacement assay, CBX8; assay type: binding; conditions: for time-dependent change of potency (IC50): further incubation; for IC50 without additional incubation time (in words): no additional incubation
T2 construct: recombinant CBX8 chromodomain (ChD)
T2 sequence (Q9HC52 11-69 limits assumed): T1 sequence (Q9HC52 11-69 Y39F limits assumed) with F29Y
Description: as §1, with “Observed masses are shown (expected average mass for CBX8 ChD=8792 Da). The observed mass difference (895 Da) corresponds to the expected mass change of 901 Da.” left out
A fluorescence polarization (FP) displacement assay was used to evaluate the covalent binding of cyclic imine warhead containing inhibitors.
To validate labeling of the targeted tyrosine residue (Y39), this amino acid was mutated to phenylalanine, which is structurally similar but lacks reactivity to the cyclic imine.

[3] = Stability of cyclic imine inhibitor P1b; assay type: physicochemical
Description: The sample was split, and one portion was further reduced with sodium cyanoborohydride. LC/MS: UV traces, low resolution mass spectrum. […] Stability was similarly assayed with 24-hour incubation in either 100 mM HCl or 100 mM NaOH.

CBX8 ChD = biological target: T3, CBX8 ChD (Homo sapiens, UniProt Q9HC52); conditions: cited from earlier work
T3 construct: recombinant CBX8 chromodomain (ChD)
T3 sequence (Q9HC52 11-69 limits assumed): T1 sequence (Q9HC52 11-69 Y39F limits assumed) with F29Y

[4] = system: CBX8 binding to chromatin; CBX8-mediated gene expression; conditions: MLL-AF9 transformed leukemia; cited from earlier work
endogenous CBX8 = biological target: T4, endogenous CBX8 (Homo sapiens, UniProt Q9HC52); test: In-gel fluorescence labeling in HEK293T cell lysates; assay type: binding; conditions: ~20 μM, 20 eq competitor with P2
T4 sequence (Q9HC52 1-389): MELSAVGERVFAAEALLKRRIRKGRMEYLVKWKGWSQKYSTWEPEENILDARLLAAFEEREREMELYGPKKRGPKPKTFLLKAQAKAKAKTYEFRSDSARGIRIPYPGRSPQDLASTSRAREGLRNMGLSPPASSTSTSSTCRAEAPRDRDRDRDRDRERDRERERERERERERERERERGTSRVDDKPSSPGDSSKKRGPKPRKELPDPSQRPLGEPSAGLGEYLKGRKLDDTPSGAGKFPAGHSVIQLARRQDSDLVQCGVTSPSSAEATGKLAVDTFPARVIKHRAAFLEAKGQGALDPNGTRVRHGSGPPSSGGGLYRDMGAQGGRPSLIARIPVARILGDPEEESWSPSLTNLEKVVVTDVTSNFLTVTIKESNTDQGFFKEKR
Description: After incubation of the inhibitor P2 at 1 μM in HEK293T cell lysates for 1 h at 37° C., click chemistry was conducted to conjugate TAMRA-azide to the C-terminal alkyne of P2 prior to SDS-PAGE.

IC50 (mutant CBX8 (Y39F)) | time-dependent change of potency (IC50) [2] | IC50 without additional incubation time (in words) [2] | degradation ([3]; 100 mM HCl, 100 mM NaOH and neutral PBS, 96 h, room temperature) | conversion of imine to amine on NaBH3CN after 24-hour incubation in PBS ([3]; 24 h PBS, then sodium cyanoborohydride (10 eq.)) | effect on P2 protein labeling on co-incubation (endogenous CBX8) | Compound | reduction of HOXA9 gene expression, 10 μM P1b vs 100 μM SW2_110A ([1]; 10 μM P1b vs 100 μM SW2_110A) | reduction of HOXA9 expression versus non-covalent inhibitor ([1]; THP1, 48 h, vs SW2_110A) | selectivity over CBX2 (CBX8 ChD; CBX8 over CBX2) | Kd (CBX8 ChD) | selectivity for CBX8 over CBX4, CBX6, and CBX7 (CBX8 ChD; in words) | CBX8-mediated gene expression [4] | inhibition of CBX8 binding to chromatin [4]
7.3 µM | time-dependent increase of potency | comparable IC50 values | no significant degradation | full conversion of imine to amine | – | CC[C@H](C)[C@H](NC(=O)[C@@H](NC(=O)c1ccc(Oc2ccccc2)cc1)C1CCCC1)C(=O)N[C@@H](CCCCN(CC)CCCCCCN1CCN=CC1=O)C(=O)N[C@@H](CO)C(N)=O [Compound P1b] | reduced gene expression to a similar extent as 100 μM SW2_110A | most effective at reducing HOXA9 gene expression | – | – | – | – | –
– | did not | comparable IC50 values | – | – | protein labeling was reduced | CC[C@H](C)[C@H](NC(=O)[C@@H](NC(=O)c1ccc(Oc2ccccc2)cc1)C1CCCC1)C(=O)N[C@@H](CCCCN(CC)CC)C(=O)N[C@@H](CO)C(N)=O [SW2_110A] ({Benzoyl(4-OPh)}-[Gly(cPent)]I[Lys(Et2)]S-NH2) | – | – | 6 fold | 0.8 µM | high selectivity | reduces CBX8-mediated gene expression | inhibits CBX8 binding to chromatin

— US20260327255A1, “LIGAND-DIRECTED COVALENT MODIFICATION OF AMINO ACID SIDE CHAINS USING CYCLIC IMINE MANNICH ELECTROPHILES” (Purdue Research Foundation, priority 2022, published 2026)
